Values after ≈ are worked out from the molar mass of the structure shown. Like-named read-outs stand apart in the source and are kept apart here.
Columns and labels:
S. aureus VISA/HIP5827 = assay: MIC, broth microdilution, vancomycin-intermediate S. aureus VISA HIP5827; assay type: cell-based, Staphylococcus aureus; settings: for MIC: Staphylococcus aureus VISA/HIP5827, read-out: MIC; for MIC-fold improvement vs. vancomycin: VISA/HIP5827, ratio of MIC of vancomycin and MIC of analogue
Procedure, shortened: (§1)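 Susceptibility was scored by broth microdilution (CLSI). In one instance each vancomycin analog or control antibiotic was tested in the presence of vancomycin, 10 μM final, and ultrapure water plus non-inoculated broth were included as controls.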

MRSA KS89 = assay: MIC, broth microdilution, MRSA KS89; assay type: cell-based, Staphylococcus aureus; settings: for MIC-fold improvement vs. vancomycin: MRSA KS8, ratio of MIC of vancomycin and MIC of analogue; for MIC: Staphylococcus aureus MRSA KS8, read-out: MIC
Procedure, shortened: as §1

MRSA KS2 = assay: MIC, broth microdilution, MRSA KS2; assay type: cell-based, Staphylococcus aureus; settings: for MIC-fold improvement vs. vancomycin: MRSA KS2, ratio of MIC of vancomycin and MIC of analogue; for MIC: Staphylococcus aureus MRSA KS2, read-out: MIC
Procedure, shortened: as §1

[1] = tested on: S. aureus VSSA (ATCC 6538); assay: MIC, broth microdilution, vancomycin-sensitive S. aureus (VSSA/MSSA, ATCC 6538); assay type: cell-based, Staphylococcus aureus; settings: for MIC: Staphylococcus aureus VSSA, read-out: MIC; for MIC-fold improvement vs. vancomycin: VSSA, ratio of MIC of vancomycin and MIC of analogue
Procedure, shortened: as §1

E. faecalis VSE 1 = assay: MIC, broth microdilution, vancomycin-sensitive E. faecalis (VSE 1); assay type: cell-based, Enterococcus faecalis; settings: for MICvanc/MICi / MIC-fold improvement vs. vancomycin: ratio of MIC of vancomycin and MIC of analogue; for MIC: read-out: MIC; for MIC-fold improvement vs. vancomycin: VSE 1
Procedure, shortened: as §1

[2] = tested on: L1210, CEM and HeLa cell lines; assay: Cytostatic activity, average or summary over L1210, CEM and HeLa; assay type: cell-based; settings: average of L1210, CEM and HeLa; read-out: Toxicity (IC50) Average
Procedure, shortened: (§2)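 Readout: Coulter cell number after drug exposure at 37°C. Durations differ by line (L1210 2 days; CEM 3 days; HeLa 4 days). Stock suspension 300,000–500,000 cells/mL, diluted by mixing with compound. Endpoint: IC50 vs negative control.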

[3] = tested on: human T-lymphocyte (CEM) cells; assay: Cytostatic activity, CEM cell proliferation; assay type: cell-based; settings: mean ± SD of three experiments; highest concentration tested 250 µM; 3 days; read-out: Toxicity (IC50) CEM
Procedure, shortened: as §2

E. faecalis VRE 37 = assay: MIC, broth microdilution, vancomycin-resistant E. faecalis VRE 37 (VanA); assay type: cell-based, Enterococcus faecalis; settings: Enterococcus faecalis VRE 37 (vancomycin-resistant); read-out: MIC
Procedure, shortened: as §1

MRSA KS1 = assay: MIC, broth microdilution, MRSA KS1; assay type: cell-based, Staphylococcus aureus; settings: for MIC-fold improvement vs. vancomycin: MRSA KS1, ratio of MIC of vancomycin and MIC of analogue; for MIC: Staphylococcus aureus MRSA KS1, read-out: MIC
Procedure, shortened: as §1

E. faecalis VRE 53 = assay: MIC, broth microdilution, vancomycin-resistant E. faecalis VRE 53 (VanA); assay type: cell-based, Enterococcus faecalis; settings: for MICvanc/MICi / MIC-fold improvement vs. vancomycin: ratio of MIC of vancomycin and MIC of analogue; for MIC: read-out: MIC; for MIC-fold improvement vs. vancomycin: VRE 53
Procedure, shortened: as §1

E. coli XL-1 blue MRF' = assay: MIC, broth microdilution, E. coli XL-1 blue MRF'; assay type: cell-based, Escherichia coli; settings: E. coli XL-1 blue MRF'; for MICvanc/MICi: ratio of MIC of vancomycin and MIC of analogue
Procedure: (§3) The minimum inhibitory concentration (MIC) was determined using the broth microdilution method according to the antimicrobial susceptibility testing standards of the clinical and laboratory standards institute ([Clinical and Laboratory Standards Institute [CLSI], 2012]). Ultrapure water and non-inoculated broth were used as controls. In one case, a final concentration of 10 μM vancomycin was included with the vancomycin analog or control antibiotic.

[4] = tested on: Murine leukemia (L1210) cells; assay: Cytostatic activity, L1210 cell proliferation; assay type: cell-based; settings: mean ± SD of three experiments; highest concentration tested 250 µM; 2 days; read-out: Toxicity (IC50) L1210
Procedure, shortened: as §2

B. subtilis PSB3 = assay: MIC, broth microdilution, B. subtilis PSB3; assay type: cell-based, Bacillus subtilis; settings: for MICvanc/MICi: ratio of MIC of vancomycin and MIC of analogue
Procedure: as §3

E. faecalis VRE 29 = assay: MIC, broth microdilution, vancomycin-resistant E. faecalis VRE 29 (VanA); assay type: cell-based, Enterococcus faecalis; settings: for MIC: Enterococcus faecalis VRE 29 (vancomycin-resistant), read-out: MIC; for MIC-fold improvement vs. vancomycin: VRE 29, ratio of MIC of vancomycin and MIC of analogue
Procedure, shortened: as §1

MRSA KS6 = assay: MIC, broth microdilution, MRSA KS6; assay type: cell-based, Staphylococcus aureus; settings: for MIC-fold improvement vs. vancomycin: MRSA KS6, ratio of MIC of vancomycin and MIC of analogue; for MIC: Staphylococcus aureus MRSA KS6, read-out: MIC
Procedure, shortened: as §1

E. faecalis VRE 6 = assay: MIC, broth microdilution, vancomycin-resistant E. faecalis VRE 6 (VanA); assay type: cell-based, Enterococcus faecalis; settings: for MICvanc/MICi / MIC-fold improvement vs. vancomycin: ratio of MIC of vancomycin and MIC of analogue; for MIC: read-out: MIC; for MIC-fold improvement vs. vancomycin: VRE 6
Procedure, shortened: as §1

[5] = tested on: human cervix carcinoma (HeLa) cells; assay: Cytostatic activity, HeLa cell proliferation; assay type: cell-based; settings: mean ± SD of three experiments; highest concentration tested 250 µM; 4 days; read-out: Toxicity (IC50) HeLa
Procedure, shortened: as §2

S. aureus VRSA = assay: MIC, broth microdilution, vancomycin-resistant S. aureus (VRSA); assay type: cell-based, Staphylococcus aureus; settings: for MIC: Staphylococcus aureus VRSA, read-out: MIC; for MIC-fold improvement vs. vancomycin: VRSA, ratio of MIC of vancomycin and MIC of analogue
Procedure, shortened: as §1

[6] = Enterococcus faecalis VSE 1 (vancomycin-sensitive)
[7] = Enterococcus faecalis VRE 53 (vancomycin-resistant)
[8] = Enterococcus faecalis VRE 6 (vancomycin-resistant)

C#Cc1ccc(-c2ccc(C(=O)NCCCNC(=O)[C@H]3NC(=O)[C@H]4NC(=O)[C@H](NC(=O)[C@@H]5NC(=O)[C@H](CC(N)=O)NC(=O)[C@H](NC(=O)[C@@H](CC(C)C)NC)[C@H](O)c6ccc(c(Cl)c6)Oc6cc5cc(c6O[C@@H]5O[C@H](CO)[C@@H](O)[C@H](O)[C@H]5O[C@H]5C[C@](C)(N)[C@H](O)[C@H](C)O5)Oc5ccc(cc5Cl)[C@H]4O)c4ccc(O)c(c4)-c4c(O)cc(O)cc43)cc2)cc1 [Vanc-S] was tested, and the MIC (S. aureus VISA/HIP5827) was 0.39 µM (≈ 0.667 µg/mL), the “MIC-fold improvement vs. vancomycin” value (S. aureus VISA/HIP5827) was 16 and the “MIC-fold improvement vs. vancomycin” value (MRSA KS89) was 4. The MIC (MRSA KS89) was 0.20 µM (≈ 0.342 µg/mL), the “MIC-fold improvement vs. vancomycin” value (MRSA KS2) was 4 and the MIC (MRSA KS2) was 0.20 µM (≈ 0.342 µg/mL). For the same molecule, the MIC [1] was 0.10 µM (≈ 0.171 µg/mL), the “MIC-fold improvement vs. vancomycin” value [1] was 8 and the MICvanc/MICi (E. faecalis VSE 1; E. faecalis VSE 1) was 64. For the same molecule, the MIC (E. faecalis VSE 1; E. faecalis VSE 1) was 0.03 µM (≈ 0.0513 µg/mL), the MIC (E. faecalis VSE 1; [6]) was 0.03 µM (≈ 0.0513 µg/mL) and the “MIC-fold improvement vs. vancomycin” value (E. faecalis VSE 1) was 64. It also gave an IC50 [2] of 29 µM, an IC50 [3] of 5.6 ± 1.1 µM and an MIC (E. faecalis VRE 37) of 25 µM (≈ 42.7 µg/mL). The “MIC-fold improvement vs. vancomycin” value (MRSA KS1) was >8, the MIC (MRSA KS1) was <0.10 µM and the MICvanc/MICi (E. faecalis VRE 53; E. faecalis VRE 53) was 128. For the same molecule, the MIC (E. faecalis VRE 53; E. faecalis VRE 53) was 3.13 µM (≈ 5.35 µg/mL), the MIC (E. faecalis VRE 53; [7]) was 3.13 µM (≈ 5.35 µg/mL) and the “MIC-fold improvement vs. vancomycin” value (E. faecalis VRE 53) was 128. For the same molecule, the MIC (E. coli XL-1 blue MRF') was 50 µM (≈ 85.5 µg/mL), the MICvanc/MICi (E. coli XL-1 blue MRF') was 2 and the IC50 [4] was 10 ± 4 µM. For the same molecule, the MIC (B. subtilis PSB3) was 0.20 µM (≈ 0.342 µg/mL), the MICvanc/MICi (B. subtilis PSB3) was 2 and the MIC (E. faecalis VRE 29) was 6.25 µM (≈ 10.7 µg/mL). For the same molecule, the “MIC-fold improvement vs. vancomycin” value (E. faecalis VRE 29) was 64, the “MIC-fold improvement vs. vancomycin” value (MRSA KS6) was 2 and the MIC (MRSA KS6) was 0.39 µM (≈ 0.667 µg/mL). The MICvanc/MICi (E. faecalis VRE 6; E. faecalis VRE 6) was 256, the MIC (E. faecalis VRE 6; E. faecalis VRE 6) was 0.78 µM (≈ 1.33 µg/mL) and the MIC (E. faecalis VRE 6; [8]) was 0.78 µM (≈ 1.33 µg/mL). For the same molecule, the “MIC-fold improvement vs. vancomycin” value (E. faecalis VRE 6) was 256, the IC50 [5] was 70 ± 8 µM and the MIC (S. aureus VRSA) was 0.78 µM (≈ 1.33 µg/mL). For the same molecule, the “MIC-fold improvement vs. vancomycin” value (S. aureus VRSA) was 128.

C#Cc1ccc2cc(C(=O)NCCCNC(=O)[C@H]3NC(=O)[C@H]4NC(=O)[C@H](NC(=O)[C@@H]5NC(=O)[C@H](CC(N)=O)NC(=O)[C@H](NC(=O)[C@@H](CC(C)C)NC)[C@H](O)c6ccc(c(Cl)c6)Oc6cc5cc(c6O[C@@H]5O[C@H](CO)[C@@H](O)[C@H](O)[C@H]5O[C@H]5C[C@](C)(N)[C@H](O)[C@H](C)O5)Oc5ccc(cc5Cl)[C@H]4O)c4ccc(O)c(c4)-c4c(O)cc(O)cc43)ccc2c1 [Vanc-T] was tested, and the MIC (S. aureus VISA/HIP5827) was 1.56 µM (≈ 2.63 µg/mL), the “MIC-fold improvement vs. vancomycin” value (S. aureus VISA/HIP5827) was 4 and the “MIC-fold improvement vs. vancomycin” value (MRSA KS89) was 4. The MIC (MRSA KS89) was 0.20 µM (≈ 0.337 µg/mL), the “MIC-fold improvement vs. vancomycin” value (MRSA KS2) was 4 and the MIC (MRSA KS2) was 0.20 µM (≈ 0.337 µg/mL). The MIC [1] was 0.10 µM (≈ 0.168 µg/mL), the “MIC-fold improvement vs. vancomycin” value [1] was 8 and the MICvanc/MICi (E. faecalis VSE 1; E. faecalis VSE 1) was 32. For the same molecule, the MIC (E. faecalis VSE 1; E. faecalis VSE 1) was 0.05 µM (≈ 0.0842 µg/mL), the MIC (E. faecalis VSE 1; [6]) was 0.05 µM (≈ 0.0842 µg/mL) and the “MIC-fold improvement vs. vancomycin” value (E. faecalis VSE 1) was 32. For the same molecule, the IC50 [2] was 71 µM, the IC50 [3] was 60 ± 10 µM and the MIC (E. faecalis VRE 37) was 25 µM (≈ 42.1 µg/mL). For the same molecule, the “MIC-fold improvement vs. vancomycin” value (MRSA KS1) was 4, the MIC (MRSA KS1) was 0.20 µM (≈ 0.337 µg/mL) and the MICvanc/MICi (E. faecalis VRE 53; E. faecalis VRE 53) was 128. For the same molecule, the MIC (E. faecalis VRE 53; E. faecalis VRE 53) was 3.13 µM (≈ 5.27 µg/mL), the MIC (E. faecalis VRE 53; [7]) was 3.13 µM (≈ 5.27 µg/mL) and the “MIC-fold improvement vs. vancomycin” value (E. faecalis VRE 53) was 128. The MIC (E. coli XL-1 blue MRF') was 25 µM (≈ 42.1 µg/mL), the MICvanc/MICi (E. coli XL-1 blue MRF') was 4 and the IC50 [4] was 77 ± 17 µM. The MIC (B. subtilis PSB3) was 0.39 µM (≈ 0.657 µg/mL), the MICvanc/MICi (B. subtilis PSB3) was 1 and the MIC (E. faecalis VRE 29) was 12.5 µM (≈ 21 µg/mL). The “MIC-fold improvement vs. vancomycin” value (E. faecalis VRE 29) was 32, the “MIC-fold improvement vs. vancomycin” value (MRSA KS6) was 2 and the MIC (MRSA KS6) was 0.39 µM (≈ 0.657 µg/mL). It also gave an MICvanc/MICi (E. faecalis VRE 6; E. faecalis VRE 6) of 64, an MIC (E. faecalis VRE 6; E. faecalis VRE 6) of 3.13 µM (≈ 5.27 µg/mL) and an MIC (E. faecalis VRE 6; [8]) of 3.13 µM (≈ 5.27 µg/mL). The “MIC-fold improvement vs. vancomycin” value (E. faecalis VRE 6) was 64, the IC50 [5] was 75 ± 20 µM and the MIC (S. aureus VRSA) was 1.56 µM (≈ 2.63 µg/mL). For the same molecule, the “MIC-fold improvement vs. vancomycin” value (S. aureus VRSA) was 64.
